Assays:
[1] = target: T1, AKT1 (Homo sapiens, UniProt P31749); test: In vitro ADP-Glo kinase assay, AKT1; assay type: biochemical
T1 construct: purchased Promega
Experimental: (§1) Subsequently, each well was added with ADP-Glo reagent and incubated for another 40 min. After completion of the kinase reaction, each well was added with kinase activity detection reagent and then incubated for 30 min. Liquid was dispensed with I.DOT (Dispendix, Stuttgart, Germany). Luminescence was measured on a Centro LB 960 microplate luminometer (Berthold Technologies).

[2] = target: T2, AKT2 (Homo sapiens, UniProt P31751); test: In vitro ADP-Glo kinase assay, AKT2; assay type: biochemical
T2 construct: purchased Promega
T2 sequence (P31751 whole entry): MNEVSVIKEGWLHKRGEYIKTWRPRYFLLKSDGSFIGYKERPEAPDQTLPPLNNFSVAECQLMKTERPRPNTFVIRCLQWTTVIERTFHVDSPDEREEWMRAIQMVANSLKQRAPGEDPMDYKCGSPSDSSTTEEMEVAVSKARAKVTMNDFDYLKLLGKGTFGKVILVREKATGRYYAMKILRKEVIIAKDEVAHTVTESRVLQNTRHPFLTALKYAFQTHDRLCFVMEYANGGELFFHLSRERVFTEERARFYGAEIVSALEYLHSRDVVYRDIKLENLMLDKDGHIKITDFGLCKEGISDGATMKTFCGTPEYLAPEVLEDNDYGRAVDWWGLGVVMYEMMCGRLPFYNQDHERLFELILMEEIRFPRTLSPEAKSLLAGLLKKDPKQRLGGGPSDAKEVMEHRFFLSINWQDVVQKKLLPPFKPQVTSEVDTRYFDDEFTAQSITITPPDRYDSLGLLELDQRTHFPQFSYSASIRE
Experimental: as §1

[3] = system: p-MET (Y1234/1235); test: Western blot p-MET (Y1234/1235) in HCC827 and HCC827GR cells; assay type: cell-based, human; conditions: DBG 3, 6, 12 nM, 48 h
Experimental: (§2) HaCaT cells were grown in DMEM, whereas HCC827 and HCC827GR cells were grown in RPMI 1640. All culture media were supplemented with FBS (10 %) and P/S (1 %), and the cells were grown at 37 °C in 5 % CO2.
(§3) Cells were lysed in RIPA buffer, and protein concentration was determined using a Bio-Rad DC Protein Assay kit (Bio-Rad, Hercules, CA, USA). Protein samples from the cell lysates were resolved by sodium dodecyl sulfate-polyacrylamide gel electrophoresis and then transferred onto polyvinylidene fluoride membranes. The membranes were blocked with 3 % or 5 % skim milk and then incubated at 4 °C overnight with the indicated primary antibodies, followed by the corresponding horseradish peroxidase-conjugated secondary antibodies at RT for 2 h. Protein bands were visualized using western blotting luminol reagent solution and ImageQuant LAS 500 (GE Healthcare, Uppsala, Sweden). The density of the bands was quantified using ImageJ software (NIH, Bethesda, MD, USA).

[4] = system: p-AKT (S473); test: Western blot p-AKT (S473) in HCC827 and HCC827GR cells; assay type: cell-based, human; conditions: DBG 3, 6, 12 nM, 48 h
Experimental: as §2, §3

[5] = system: CDK4; test: Immunoblot CDK4 in HCC827 and HCC827GR cells; assay type: cell-based, human; conditions: for CDK4 protein ratio: relative to DBG 0 nM = 1.00
Experimental: as §2, §3

[6] = system: CDK6; test: Immunoblot CDK6 in HCC827 and HCC827GR cells; assay type: cell-based, human; conditions: for CDK6 protein ratio: relative to DBG 0 nM = 1.00
Experimental: as §2, §3

[7] = system: cytochrome c (cytosol); test: Immunoblot cytosolic cytochrome c in HCC827 and HCC827GR cells; assay type: cell-based, human
Experimental: as §3
The cells were suspended in plasma membrane extraction buffer [250 mM sucrose, 10 mM HEPES (pH 8.0), 10 mM KCl, 1.5 mM MgCl2• 6H2O, 1 mM EGTA, 1 mM EDTA, 0.1 mM PMSF, 0.01 mg/ml aprotinin, and 0.01 mg/ml leupeptin], and 0.1 % digitonin was added for vortexing (1 min). The supernatant was collected as the cytosolic fraction. The pellet was resuspended in plasma membrane extraction buffer containing 0.5 % Triton X-100. The lysates were centrifuged at 13,000 rpm for 30 min to separate the mitochondrial fraction.

[8] = system: HCC827GR cells; test: Multi-caspase assay, HCC827GR; assay type: cell-based, human; set-up: Caspase+ cells / Total Caspase+ cells / dead cells (multi-caspase assay) / Live cells (multi-caspase assay): unit not given here; conditions: for cells with activated caspases: 48 h, background 6.43 %; for Caspase+ cells / Caspase+/dead cells / Live cells (multi-caspase assay) / Total Caspase+ cells / dead cells (multi-caspase assay): HCC827GR
Experimental: as §2

T1 sequence (P31749 whole entry): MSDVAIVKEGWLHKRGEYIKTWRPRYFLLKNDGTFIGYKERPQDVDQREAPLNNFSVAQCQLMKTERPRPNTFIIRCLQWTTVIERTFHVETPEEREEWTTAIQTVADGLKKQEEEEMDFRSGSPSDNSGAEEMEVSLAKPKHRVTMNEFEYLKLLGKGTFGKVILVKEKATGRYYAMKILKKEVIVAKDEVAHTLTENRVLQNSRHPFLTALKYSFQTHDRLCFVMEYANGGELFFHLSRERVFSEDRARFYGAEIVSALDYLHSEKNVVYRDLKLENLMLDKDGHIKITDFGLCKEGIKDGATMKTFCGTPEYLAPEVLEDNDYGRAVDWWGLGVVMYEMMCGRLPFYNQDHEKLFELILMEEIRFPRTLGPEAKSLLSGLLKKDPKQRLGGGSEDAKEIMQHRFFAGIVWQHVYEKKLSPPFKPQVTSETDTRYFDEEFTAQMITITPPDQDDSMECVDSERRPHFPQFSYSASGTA

IC50 ([1]; ADP-Glo, AKT1 10 ng, RT, 60 min, luminescence, n=3): 6.86 nM | kinase activity, in words ([1]; DBG 3, 6, 12 nM): significantly inhibited | IC50 ([2]; ADP-Glo, AKT2 5 ng, RT, 60 min, luminescence, n=3): 11.2 nM | kinase activity, in words ([2]; DBG 3, 6, 12 nM): significantly inhibited
Compound: COc1ccc(C[C@H]2C(=O)N[C@@H](C)C(=O)N(C)[C@H]3Cc4ccc(cc4)Oc4cc(ccc4O[C@@H]4O[C@H](CO)[C@@H](O)[C@H](O)[C@H]4O)C[C@@H](C(=O)N[C@H](C)C(=O)N[C@@H](C)C(=O)N2C)N(C)C3=O)cc1 [DBG, deoxybouvardin glucoside]
phosphorylation level of MET [3]: decreased | phosphorylation level of AKT [4]: decreased | level of CDKs (CDK4) ([5]; DBG 3, 6, 12 nM, 48 h): significantly decreased | CDK4 protein/actin ([5]; HCC827, DBG 3 nM, DBG 0 nM 0.59): 0.35 | CDK4 protein ratio ([5]; HCC827, DBG 3 nM): 0.58 | CDK4 protein/actin ([5]; HCC827, DBG 6 nM, DBG 0 nM 0.59): 0.30 | CDK4 protein ratio ([5]; HCC827, DBG 6 nM): 0.50 | CDK4 protein/actin ([5]; HCC827, DBG 12 nM, DBG 0 nM 0.59): 0.32 | CDK4 protein ratio ([5]; HCC827, DBG 12 nM): 0.53 | CDK4 protein/actin ([5]; HCC827GR, DBG 3 nM, DBG 0 nM 0.72): 0.61 | CDK4 protein ratio ([5]; HCC827GR, DBG 3 nM): 0.85 | CDK4 protein/actin ([5]; HCC827GR, DBG 6 nM, DBG 0 nM 0.72): 0.55 | CDK4 protein ratio ([5]; HCC827GR, DBG 6 nM): 0.77 | CDK4 protein/actin ([5]; HCC827GR, DBG 12 nM, DBG 0 nM 0.72): 0.30 | CDK4 protein ratio ([5]; HCC827GR, DBG 12 nM): 0.42 | level of CDKs (CDK6) ([6]; DBG 3, 6, 12 nM, 48 h): significantly decreased | CDK6 protein/actin ([6]; HCC827, DBG 3 nM, DBG 0 nM 0.53): 0.32 | CDK6 protein ratio ([6]; HCC827, DBG 3 nM): 0.60 | CDK6 protein/actin ([6]; HCC827, DBG 6 nM, DBG 0 nM 0.53): 0.19 | CDK6 protein ratio ([6]; HCC827, DBG 6 nM): 0.36 | CDK6 protein/actin ([6]; HCC827, DBG 12 nM, DBG 0 nM 0.53): 0.07 | CDK6 protein ratio ([6]; HCC827, DBG 12 nM): 0.14 | CDK6 protein/actin ([6]; HCC827GR, DBG 3 nM, DBG 0 nM 0.70): 0.55 | CDK6 protein ratio ([6]; HCC827GR, DBG 3 nM): 0.79 | CDK6 protein/actin ([6]; HCC827GR, DBG 6 nM, DBG 0 nM 0.70): 0.47 | CDK6 protein ratio ([6]; HCC827GR, DBG 6 nM): 0.67 | CDK6 protein/actin ([6]; HCC827GR, DBG 12 nM, DBG 0 nM 0.70): 0.30 | CDK6 protein ratio ([6]; HCC827GR, DBG 12 nM): 0.43 | cyto c (cytosol) cyto c/β-tubulin/actin (A) ([7]; HCC827, DBG 3 nM, DBG 0 nM 12.22): 16.55 | cyto c (cytosol) protein Ratio ([7]; HCC827, DBG 3 nM, relative to DBG 12 nM = 1.00, DBG 0 nM 0.18): 0.25 | cyto c (cytosol) cyto c/β-tubulin/actin (A) ([7]; HCC827, DBG 6 nM, DBG 0 nM 12.22): 47.59 | cyto c (cytosol) protein Ratio ([7]; HCC827, DBG 6 nM, relative to DBG 12 nM = 1.00, DBG 0 nM 0.18): 0.72 | cyto c (cytosol) protein Ratio ([7]; HCC827, DBG 12 nM (reference of the ratio, 1.00), DBG 0 nM 0.18): 1.00 | cyto c (cytosol) cyto c/β-tubulin/actin (A) ([7]; HCC827, DBG 12 nM, DBG 0 nM 12.22): 66.24 | cyto c (cytosol) cyto c/β-tubulin/actin (A) ([7]; HCC827GR, DBG 3 nM, DBG 0 nM 5.99): 33.57 | cyto c (cytosol) protein Ratio ([7]; HCC827GR, DBG 3 nM, relative to DBG 12 nM = 1.00, DBG 0 nM 0.07): 0.41 | cyto c (cytosol) cyto c/β-tubulin/actin (A) ([7]; HCC827GR, DBG 6 nM, DBG 0 nM 5.99): 49.49 | cyto c (cytosol) protein Ratio ([7]; HCC827GR, DBG 6 nM, relative to DBG 12 nM = 1.00, DBG 0 nM 0.07): 0.60 | cyto c (cytosol) protein Ratio ([7]; HCC827GR, DBG 12 nM (reference of the ratio, 1.00), DBG 0 nM 0.07): 1.00 | cyto c (cytosol) cyto c/β-tubulin/actin (A) ([7]; HCC827GR, DBG 12 nM, DBG 0 nM 5.99): 82.76 | cytochrome c release ([7]; NSCLC cells, DBG, cytosolic and mitochondrial fractions): released from the mitochondria | cells with activated caspases ([8]; DBG 3 nM): 23.91% | cells with activated caspases ([8]; DBG 6 nM): 31.13% | cells with activated caspases ([8]; DBG 12 nM): 33.34% | Caspase+ cells ([8]; DBG 3 nM, mean of samples 1-3): 8.71 | Caspase+/dead cells ([8]; DBG 3 nM, mean of samples 1-3): 15.20 | Live cells (multi-caspase assay) ([8]; DBG 3 nM, mean of samples 1-3): 74.50 | Total Caspase+ cells ([8]; DBG 3 nM, mean of samples 1-3): 23.91 | dead cells (multi-caspase assay) ([8]; DBG 3 nM, mean of samples 1-3): 1.60 | Caspase+ cells ([8]; DBG 3 nM, sample 1): 8.78 | Caspase+/dead cells ([8]; DBG 3 nM, sample 1): 15.95 | Live cells (multi-caspase assay) ([8]; DBG 3 nM, sample 1): 73.93 | Total Caspase+ cells ([8]; DBG 3 nM, sample 1): 24.73 | dead cells (multi-caspase assay) ([8]; DBG 3 nM, sample 1): 1.34 | Caspase+ cells ([8]; DBG 3 nM, sample 2): 8.19 | Caspase+/dead cells ([8]; DBG 3 nM, sample 2): 14.57 | Live cells (multi-caspase assay) ([8]; DBG 3 nM, sample 2): 75.49 | Total Caspase+ cells ([8]; DBG 3 nM, sample 2): 22.76 | dead cells (multi-caspase assay) ([8]; DBG 3 nM, sample 2): 1.75 | Caspase+ cells ([8]; DBG 3 nM, sample 3): 9.16 | Caspase+/dead cells ([8]; DBG 3 nM, sample 3): 15.07 | Live cells (multi-caspase assay) ([8]; DBG 3 nM, sample 3): 74.07 | Total Caspase+ cells ([8]; DBG 3 nM, sample 3): 24.23 | dead cells (multi-caspase assay) ([8]; DBG 3 nM, sample 3): 1.70 | Caspase+ cells ([8]; DBG 6 nM, mean of samples 1-3): 7.98 | Caspase+/dead cells ([8]; DBG 6 nM, mean of samples 1-3): 23.15 | Live cells (multi-caspase assay) ([8]; DBG 6 nM, mean of samples 1-3): 67.79 | Total Caspase+ cells ([8]; DBG 6 nM, mean of samples 1-3): 31.13 | dead cells (multi-caspase assay) ([8]; DBG 6 nM, mean of samples 1-3): 1.08 | Caspase+ cells ([8]; DBG 6 nM, sample 1): 7.79 | Caspase+/dead cells ([8]; DBG 6 nM, sample 1): 23.36 | Live cells (multi-caspase assay) ([8]; DBG 6 nM, sample 1): 67.58 | Total Caspase+ cells ([8]; DBG 6 nM, sample 1): 31.15 | dead cells (multi-caspase assay) ([8]; DBG 6 nM, sample 1): 1.27 | Caspase+ cells ([8]; DBG 6 nM, sample 2): 7.88 | Caspase+/dead cells ([8]; DBG 6 nM, sample 2): 23.02 | Live cells (multi-caspase assay) ([8]; DBG 6 nM, sample 2): 67.97 | Total Caspase+ cells ([8]; DBG 6 nM, sample 2): 30.90 | dead cells (multi-caspase assay) ([8]; DBG 6 nM, sample 2): 1.13 | Caspase+ cells ([8]; DBG 6 nM, sample 3): 8.26 | Caspase+/dead cells ([8]; DBG 6 nM, sample 3): 23.08 | Live cells (multi-caspase assay) ([8]; DBG 6 nM, sample 3): 67.82 | Total Caspase+ cells ([8]; DBG 6 nM, sample 3): 31.34 | dead cells (multi-caspase assay) ([8]; DBG 6 nM, sample 3): 0.83 | Caspase+ cells ([8]; DBG 12 nM, mean of samples 1-3): 9.57 | Caspase+/dead cells ([8]; DBG 12 nM, mean of samples 1-3): 23.77 | Live cells (multi-caspase assay) ([8]; DBG 12 nM, mean of samples 1-3): 66.05 | Total Caspase+ cells ([8]; DBG 12 nM, mean of samples 1-3): 33.34 | dead cells (multi-caspase assay) ([8]; DBG 12 nM, mean of samples 1-3): 0.61 | Caspase+ cells ([8]; DBG 12 nM, sample 1): 11.11 | Caspase+/dead cells ([8]; DBG 12 nM, sample 1): 21.58 | Live cells (multi-caspase assay) ([8]; DBG 12 nM, sample 1): 67.07 | Total Caspase+ cells ([8]; DBG 12 nM, sample 1): 32.69 | dead cells (multi-caspase assay) ([8]; DBG 12 nM, sample 1): 0.24 | Caspase+ cells ([8]; DBG 12 nM, sample 2): 10.36 | Caspase+/dead cells ([8]; DBG 12 nM, sample 2): 24.35 | Live cells (multi-caspase assay) ([8]; DBG 12 nM, sample 2): 65.05 | Total Caspase+ cells ([8]; DBG 12 nM, sample 2): 34.70 | dead cells (multi-caspase assay) ([8]; DBG 12 nM, sample 2): 0.24 | Caspase+ cells ([8]; DBG 12 nM, sample 3): 7.24 | Caspase+/dead cells ([8]; DBG 12 nM, sample 3): 25.38 | Live cells (multi-caspase assay) ([8]; DBG 12 nM, sample 3): 66.02 | Total Caspase+ cells ([8]; DBG 12 nM, sample 3): 32.62 | dead cells (multi-caspase assay) ([8]; DBG 12 nM, sample 3): 1.36
